Assay results taken from paper PMC5443783, “Prostaglandin E2 glyceryl ester is an endogenous agonist of the nucleotide receptor P2Y6” (Scientific Reports, 2017).
“Also recorded” adds a separate entry of the source.

How the values were obtained:
P2Y6 Y75A = molecular target: T1, P2Y6 Y75A (Homo sapiens, UniProt Q15077, Y75A); experiment: IP1 accumulation assay, mutant P2Y6 Y75A; type: cell-based; settings: for IP1 formation at mutant receptor: Fig. 6d
T1 construct: expressed in transfected cells; host or cells: HEK293
T1 sequence (Q15077 whole entry Y75A): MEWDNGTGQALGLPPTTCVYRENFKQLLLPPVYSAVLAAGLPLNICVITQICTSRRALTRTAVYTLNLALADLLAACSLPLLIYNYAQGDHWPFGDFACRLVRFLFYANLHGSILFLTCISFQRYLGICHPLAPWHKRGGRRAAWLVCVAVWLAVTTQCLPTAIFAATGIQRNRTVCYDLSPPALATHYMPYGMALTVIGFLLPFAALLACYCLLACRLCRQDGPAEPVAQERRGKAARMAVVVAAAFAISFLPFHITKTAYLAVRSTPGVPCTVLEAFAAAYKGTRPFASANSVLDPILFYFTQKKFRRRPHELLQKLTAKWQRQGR
Source text: (§1) cDNA from H1819 cells was used to amplify and clone the P2RY6 and CNR2 coding sequences. They were double-tagged with an N-terminal HA epitope and a C-terminal FLAG epitope and, for transient transfection, introduced into the mammalian expression vector pcDps[56]. All mutant constructs were generated by a PCR-based site-directed mutagenesis and fragment replacement strategy. For stable transfection, P2RY6 was sub-cloned into the pIRES-eGFP vector (CLONTECH Laboratories, USA). All constructs were verified by sequencing.
(§2) To measure intracellular IP3 the HitHunter® Inositol (1,4,5) Triphosphate Assay (DiscoveRx, USA) was used according to manufacturer′s protocol. HEK293 cells stably transfected with hP2RY6 were seeded in a 384-well Black microtiter plate (15,000 cells/well) (Greiner Bio One, Germany) and incubated with indicated concentrations of UDP and PGE2-G for 20 seconds. Reaction was stopped by adding 5 µl 0.2 N perchloric acid and measurement of IP3 was performed with the Fusion AlphaScreen multilabel reader (PerkinElmer Life Sciences) according to manufacturer′s protocol. To measure IP1, HEK293 cells expressing wildtype and mutant P2Y6 were seeded into 384-well plates (5,000 cells/well) 24 h prior assay. After aspiration of the medium, cells were incubated with indicated concentrations of agonists/antagonist for 1 h. IP1 measurements using the IP-one HTFR® assay kit (Cisbio assays, USA) were performed according to manufacturer′s protocol. The assays were performed with a final concentration of 1% DMSO.

RAW264.7 cells = experiment: Intracellular Ca2+ measurement in RAW264.7 cells; type: cell-based, mouse
Experimental: (§3) For fluorometric measurements of intracellular Ca^2+ levels with the FlexStationII instrument (Molecular Devices), RAW264.7 and H1819 cells were seeded into 96-well plates (3.0 × 10^4 cells/well) 24 h prior to assay. Ca^2+ measurements with transiently transfected HEK293 cells were performed 48 h after transfection. Cells were loaded with 200 µl Calcium 5 reagent (Explorer Kit, Molecular Devices, USA) for 60 min at 37 °C, and the assay was performed as described. Agonists and inhibitors were solved in DMSO (100x) and diluted […] in 96-well compound plates containing HBSS. 50 µl of compound solution were added to the assay plate resulting in final concentration of 1% DMSO. Fold-response was calculated by RFUmax − RFUmin (ligand)/RFUmax − RFUmin (vehicle). EC50 values were calculated by using GraphPad Prism6 software (GraphPad, USA).

P2Y6 [1] = molecular target: T2, P2Y6 (Homo sapiens, UniProt Q15077); experiment: ERK1/2 phosphorylation (AlphaScreen SureFire) in P2RY6-transfected HEK293 cells; type: cell-based; design: expressed in transfected cells; host or cells: HEK293; settings: P2RY6-transfected HEK293 cells, Fig. 3b
T2 sequence (Q15077 whole entry, the tested form may be a part): as the sequence (Q15077 whole entry Y75A) above, with A75Y counted along it
Experimental: Cells were transferred to serum-free medium 2 h prior to assay. Ligands and controls (10 µl of 10× concentrates) were added to 90 µl medium and incubated for 5 min at 37 °C. The final concentration of DMSO was 0.2%. The reaction was stopped by aspiration of the medium and addition of 50 µl lysis buffer (PerkinElmer Life Sciences). To measure ERK1/2 phosphorylation, the AlphaScreen® SureFire ERK 1/2 assay kit (PerkinElmer Life Sciences) was used with the high sensitivity protocol. Phosphorylated ERK1/2 was measured in 384-well white OptiPlate microplates (PerkinElmer Life Sciences) with the Fusion AlphaScreen multilabel reader (PerkinElmer Life Sciences).

[2] = molecular target: T3, human TSH receptor (TSHR) (Homo sapiens, UniProt P16473); experiment: Cell surface expression of TSH receptor, cell surface ELISA; type: cell-based; settings: HEK293 transfected with HA-tagged human TSHR, Fig. 5e
T3 construct: HA tag (N); expressed in transfected cells; host or cells: HEK293
T3 sequence (P16473 21-764): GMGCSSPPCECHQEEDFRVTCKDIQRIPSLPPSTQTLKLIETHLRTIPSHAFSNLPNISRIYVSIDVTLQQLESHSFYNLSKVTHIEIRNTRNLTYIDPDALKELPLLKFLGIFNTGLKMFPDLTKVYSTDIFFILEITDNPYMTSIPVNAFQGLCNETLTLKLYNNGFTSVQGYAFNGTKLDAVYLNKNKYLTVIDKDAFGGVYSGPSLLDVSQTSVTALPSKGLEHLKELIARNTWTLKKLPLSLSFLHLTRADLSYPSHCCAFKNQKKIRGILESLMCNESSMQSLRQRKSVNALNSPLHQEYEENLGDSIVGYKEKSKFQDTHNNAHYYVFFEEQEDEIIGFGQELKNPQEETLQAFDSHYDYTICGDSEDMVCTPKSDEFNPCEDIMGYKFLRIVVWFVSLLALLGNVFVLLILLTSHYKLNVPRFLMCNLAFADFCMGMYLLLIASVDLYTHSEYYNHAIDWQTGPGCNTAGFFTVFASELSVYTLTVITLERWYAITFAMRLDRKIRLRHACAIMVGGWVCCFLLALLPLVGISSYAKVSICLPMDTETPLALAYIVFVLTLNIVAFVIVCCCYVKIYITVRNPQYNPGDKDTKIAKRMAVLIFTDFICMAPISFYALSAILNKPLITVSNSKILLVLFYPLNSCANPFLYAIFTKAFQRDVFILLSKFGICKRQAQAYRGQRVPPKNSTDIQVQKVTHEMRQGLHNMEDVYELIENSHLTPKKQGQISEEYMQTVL
Experimental: (§4) To estimate cell surface expression of heterologously expressed receptors carrying an N-terminal HA tag, an indirect cellular ELISA was used[57]. To determine the endogenous cell surface expression of P2Y6, the same ELISA procedure was performed with minor modifications. Briefly, after 4% paraformaldehyde fixation and blocking with 10% FBS, cells were incubated with the primary anti-P2Y6 antibody (sc-15215; Santa Cruz Biotechnology, USA) in 1:1,000 dilution for 1 h. After washing with PBS, cells were incubated with peroxidase-conjugated secondary antibody anti-goat IgG (sc-2020, Santa Cruz Biotechnology, USA) in 1:5,000 dilutions.

H1819 cells = experiment: Intracellular Ca2+ measurement in H1819 cells; type: cell-based, human
Experimental: as §3

HEK293 cells = experiment: Intracellular Ca2+ measurement in non-transfected HEK293 cells; type: cell-based, human; settings: for effect on intracellular Ca2+: non-transfected HEK293 cells
Experimental: as §3

P2Y6 Y262 to alanine = molecular target: T4, P2Y6 Y262 to alanine (Homo sapiens, UniProt Q15077, Y262A); experiment: IP1 accumulation assay, mutant P2Y6 Y262A; type: cell-based; settings: Fig. 6d
T4 construct: expressed in transfected cells; host or cells: HEK293
T4 sequence (Q15077 whole entry Y262A): as the sequence (Q15077 whole entry Y75A) above, with A75Y, Y262A counted along it
Source text: as §1
as §2, with “IP1 measurements using the IP-one HTFR® assay kit (Cisbio assays, USA) were performed according to manufacturer′s protocol. The assays were performed with a final concentration of 1% DMSO.” left out

P2Y6 [3] = molecular target: T2, P2Y6; experiment: Functional readouts at P2Y6, summary statements; type: cell-based; settings: for EC50: summary value
P2Y6 [4] = molecular target: T2, P2Y6; experiment: Agonist-induced receptor internalization, cell surface ELISA; type: cell-based; design: expressed in transfected cells; host or cells: HEK293; settings: HEK293 transiently transfected with hP2RY6, time-dependent, Fig. 5e
Experimental: as §4

P2Y6 [5] = molecular target: T2, P2Y6; experiment: IP1 accumulation assay in HEK293 cells transfected with wildtype P2RY6; type: cell-based; design: expressed in transfected cells; host or cells: HEK293
Experimental: as §2

P2Y6 F252A = molecular target: T5, P2Y6 F252A (Homo sapiens, UniProt Q15077, F252A); experiment: IP1 accumulation assay, mutant P2Y6 F252A; type: cell-based; settings: for IP1 formation at mutant receptor: Fig. 6d
T5 construct: expressed in transfected cells; host or cells: HEK293
T5 sequence (Q15077 whole entry F252A): as the sequence (Q15077 whole entry Y75A) above, with A75Y, F252A counted along it
Source text: as §1, §2

[6] = Fig. 1d, read-out: EC50, intracellular Ca2+ release

| EC50 (P2Y6 Y75A; Fig. 6e) | EC50 (RAW264.7 cells; [6]) | EC50 (H1819 cells; [6]) | EC50 (P2Y6 [5]; HEK293 stably transfected with P2RY6, Fig. 5) | EC50 (P2Y6 [5]; agonist alone, HEK293 transfected with P2RY6, Fig. 6a) | EC50 (P2Y6 F252A; Fig. 6e) | Compound | IP1 formation at mutant receptor (P2Y6 Y75A) | ERK1/2 phosphorylation (P2Y6 [1]) | effect on cell surface expression of the TSH receptor [2] | effect on intracellular Ca2+ (HEK293 cells) | IP1 formation at mutant receptor (P2Y6 Y262 to alanine) | EC50 (P2Y6 [3]) | agonist-induced internalization of P2Y6 (cell surface expression) (P2Y6 [4]) | IP1 formation at mutant receptor (P2Y6 F252A) | Maximum RFU for PGE2-G (RAW264.7 cells; control (1% DMSO) 1,560 ± 479) | Maximum RFU for PGE2-G (H1819 cells; control (1% DMSO) 5,247 ± 2,016) | Maximum RFU for PGE2-G (HEK293 cells; HEK293 cells, control (1% DMSO) 2,106 ± 1,193) | Emax values (P2Y6 [3]; most functional assays, Figs 3a–c and 6a) | ratio of EC50 values UDP / PGE2-G (P2Y6 [5]; IP1 accumulation, Fig. 6a) |
| --- | --- | --- | --- | --- | --- | --- | --- | --- | --- | --- | --- | --- | --- | --- | --- | --- | --- | --- | --- |
| 15.4 ± 0.9 nM | 38.4 ± 1.9 nM | 25.9 ± 2.8 nM | 77.3 ± 3.4 nM | 18.9 ± 2.3 nM | 12.7 ± 2.1 nM | O=c1ccn([C@@H]2O[C@H](COP(=O)(O)OP(=O)(O)O)[C@@H](O)[C@H]2O)c(=O)[nH]1 [UDP] | efficacy remained unchanged | led to ERK1/2 phosphorylation; also recorded: induce ERK1/2 phosphorylation | no effect | no effect | significantly reduced activity | ~50 nM | cell surface expression levels of P2Y6 were reduced; also recorded: induced a time-dependent internalization | efficacy remained unchanged |  |  |  |  |  |
|  |  |  |  |  |  | Prostaglandin E2 glyceryl ester [PGE2-G] | loss of PGE2-G-induced IP1 formation | led to ERK1/2 phosphorylation; also recorded: induce ERK1/2 phosphorylation | no effect | no effect | fully activated | ~0.001 nM | cell surface expression levels of P2Y6 were reduced; also recorded: induced a time-dependent internalization | loss of PGE2-G-induced IP1 formation | 3,649 ± 678 RFU | 13,143 ± 2,157 RFU | 2,193 ± 252 RFU | slightly lower compared to UDP | ~ 63,000 |
